Results published in patent US9957264B2 (Merck Sharp & Dohme Corp., priority 2013, dated 2018).

How the values were obtained:
[1] = molecular target: JAK1 (recombinant purified GST-tagged catalytic domain) (Homo sapiens (Human), UniProt P23458); test: Jak Biochemical HTRF Assay (JAK1); conditions: [ATP] 31.8 μM
How it was run: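 Compounds in DMSO were pre-equilibrated with enzyme and biotinylated peptide, then ATP was added and the reaction proceeded 120 min at room temperature. EDTA-based stop buffer with detection reagents was added, and after 60 min the time-resolved FRET ratio was read. IC50s came from 4-parameter dose–response fits.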

[2] = molecular target: JAK2 (recombinant purified GST-tagged catalytic domain) (Homo sapiens (Human), UniProt O60674); test: Jak Biochemical HTRF Assay (JAK2); conditions: [ATP] 8.5 μM
Chain of JAK2 (recombinant purified GST-tagged catalytic domain) (O60674 849-1124): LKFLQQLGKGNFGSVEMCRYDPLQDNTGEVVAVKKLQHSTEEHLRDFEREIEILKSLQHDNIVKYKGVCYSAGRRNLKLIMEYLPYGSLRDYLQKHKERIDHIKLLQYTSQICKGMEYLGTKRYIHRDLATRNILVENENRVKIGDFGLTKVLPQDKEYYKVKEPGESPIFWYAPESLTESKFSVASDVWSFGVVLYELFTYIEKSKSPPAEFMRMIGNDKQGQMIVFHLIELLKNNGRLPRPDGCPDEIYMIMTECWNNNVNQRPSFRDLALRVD

Chain of JAK1 (recombinant purified GST-tagged catalytic domain) (P23458 875-1153): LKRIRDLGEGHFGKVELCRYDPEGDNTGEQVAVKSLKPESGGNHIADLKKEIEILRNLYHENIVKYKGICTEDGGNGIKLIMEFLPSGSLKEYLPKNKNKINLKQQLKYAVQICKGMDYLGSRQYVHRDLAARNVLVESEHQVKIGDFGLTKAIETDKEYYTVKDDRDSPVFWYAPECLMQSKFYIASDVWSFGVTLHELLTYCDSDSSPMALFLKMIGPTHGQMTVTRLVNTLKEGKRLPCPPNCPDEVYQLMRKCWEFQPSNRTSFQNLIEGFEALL

| Structure (SMILES) | IC50 [1] | IC50 [2] |
| --- | --- | --- |
| CCN(CC)S(=O)(=O)c1ccc(Nc2nn(C3(CC#N)CCCC3)c3cc[nH]c(=O)c23)cc1 [Example 5-136, 4-((1-(1-(cyanomethyl)cyclopentyl)-4-oxo-4,5-dihydro-1H-pyrazolo[4,3-c]pyridin-3-yl)amino)-N,N-diethylbenzenesulfonamide] | 0.56 nM | 1.01 nM |
| CN(C(C)(C)C(=O)OC(C)(C)C)S(=O)(=O)c1ccc(Nc2nn(C3(CC#N)CCCC3)c3cc[nH]c(=O)c23)cc1 [Example 5-137, tert-butyl 2-(4-((1-(1-(cyanomethyl)cyclopentyl)-4-oxo-4,5-dihydro-1H-pyrazolo[4,3-c]pyridin-3-yl)amino)-N-methylphenylsulfonamido)-2-methylpropanoate] | 1.9 nM | 5.85 nM |
| N#CCC1(n2nc(Nc3ccc4c(c3)CN(CC(F)(F)F)C4=O)c3c(=O)[nH]ccc32)CCCC1 [Example 5-138, 2-(1-(4-oxo-3-((1-oxo-2-(2,2,2-trifluoroethyl)isoindolin-5-yl)amino)-4,5-dihydro-1H-pyrazolo[4,3-c]pyridin-1-yl)cyclopentyl)acetonitrile] | 0.31 nM | 1.51 nM |
| CC(C)(C)OC(=O)C(C)(C)N1Cc2cc(Nc3nn(C4(CC#N)CCCC4)c4cc[nH]c(=O)c34)ccc2C1=O [Example 5-140, tert-butyl 2-(5-((1-(1-(cyanomethyl)cyclopentyl)-4-oxo-4,5-dihydro-1H-pyrazolo[4,3-c]pyridin-3-yl)amino)-1-oxoisoindolin-2-yl)-2-methylpropanoate] | 0.32 nM | 0.74 nM |
| COC(=O)N1CCC(CC#N)(n2nc(Nc3ccc(C#N)cc3)c3c(=O)[nH]ccc32)CC1 [Example 5-145, methyl 4-(cyanomethyl)-4-(3-((4-cyanophenyl)amino)-4-oxo-4,5-dihydro-1H-pyrazolo[4,3-c]pyridin-1-yl)piperidine-1-carboxylate] | 0.19 nM | 1.22 nM |
| COC(=O)N1CCC(CC#N)(n2nc(Nc3ccc(F)cc3)c3c(=O)[nH]ccc32)CC1 [Example 5-146, methyl 4-(cyanomethyl)-4-(3-((4-fluorophenyl)amino)-4-oxo-4,5-dihydro-1H-pyrazolo[4,3-c]pyridin-1-yl)piperidine-1-carboxylate] | 0.3 nM | 2 nM |
| COC(=O)N1CCC(CC#N)(n2nc(Nc3ccc(C(F)(F)F)cc3)c3c(=O)[nH]ccc32)CC1 [Example 5-147, methyl 4-(cyanomethyl)-4-(4-oxo-3-((4-(trifluoromethyl)phenyl)amino)-4,5-dihydro-1H-pyrazolo[4,3-c]pyridin-1-yl)piperidine-1-carboxylate] | 0.32 nM | 2.95 nM |
| COC(=O)N1CCC(CC#N)(n2nc(Nc3ccc4ncccc4c3)c3c(=O)[nH]ccc32)CC1 [Example 5-148, methyl 4-(cyanomethyl)-4-(4-oxo-3-(quinolin-6-ylamino)-4,5-dihydro-1H-pyrazolo[4,3-c]pyridin-1-yl)piperidine-1-carboxylate] | 0.08 nM | 0.84 nM |
| COC(=O)N1CCC(CC#N)(n2nc(Nc3ccc(S(=O)(=O)C(C)C)cc3)c3c(=O)[nH]ccc32)CC1 [Example 5-149, methyl 4-(cyanomethyl)-4-(3-((4-(isopropylsulfonyl)phenyl)amino)-4-oxo-4,5-dihydro-1H-pyrazolo[4,3-c]pyridin-1-yl)piperidine-1-carboxylate] | 0.12 nM | 0.23 nM |
| COC(=O)N1CCC(CC#N)(n2nc(Nc3ccc(S(=O)(=O)C(C)(C)C)cc3)c3c(=O)[nH]ccc32)CC1 [Example 5-150, methyl 4-(3-((4-(tert-butylsulfonyl)phenyl)amino)-4-oxo-4,5-dihydro-1H-pyrazolo [4,3-c]pyridin-1-yl)-4-(cyanomethyl)piperidine-1-carboxylate] | 0.1 nM | 0.14 nM |
| Cc1cc(Nc2nn([C@@]3(CC#N)CCCC[C@H]3F)c3cc[nH]c(=O)c23)ccc1C(=O)N1CCOCC1 [Example 5-151, 2-((1R,2R)-2-fluoro-1-(3-((3-methyl-4-(morpholine-4-carbonyl)phenyl)amino)-4-oxo-4,5-dihydro-1H-pyrazolo[4,3-c]pyridin-1-yl)cyclohexyl)acetonitrile] | 0.09 nM | 0.1 nM |
| N#CC[C@]1(n2nc(Nc3ccnc(F)c3)c3c(=O)[nH]ccc32)CCCC[C@H]1F [Example 5-152, 2-((1R,2R)-2-fluoro-1-(3-((2-fluoropyridin-4-yl)amino)-4-oxo-4,5-dihydro-1H-pyrazolo[4,3-c]pyridin-1-yl)cyclohexyl)acetonitrile] | 0.09 nM | 0.68 nM |
| Cc1cc(Nc2nn([C@@]3(CC#N)CCCC[C@H]3F)c3cc[nH]c(=O)c23)ccc1C(=O)N1CCC(F)(F)CC1 [Example 5-153, 2-((1R,2R)-1-(3-((4-(4,4-difluoropiperidine-1-carbonyl)-3-methylphenyl)amino)-4-oxo-4,5-dihydro-1H-pyrazolo[4,3-c]pyridin-1-yl)-2-fluorocyclohexyl) acetonitrile] | 0.09 nM | 0.08 nM |
| Cc1cc(Nc2nn([C@@]3(CC#N)CCCC[C@H]3F)c3cc[nH]c(=O)c23)ccc1C(=O)N1CCSCC1 [Example 5-154, 2-((1R,2R)-2-fluoro-1-(3-((3-methyl-4-(thiomorpholine-4-carbonyl)phenyl)amino)-4-oxo-4,5-dihydro-1H-pyrazolo[4,3-c]pyridin-1-yl)cyclohexyl)acetonitrile] | 0.09 nM | 0.08 nM |
| Cc1cc(Nc2nn([C@]3(CC#N)CC[C@@H](C(=O)OC(C)(C)C)OC3)c3cc[nH]c(=O)c23)ccc1C(=O)N1CCSC1 [Example 5-155, (2S,5S)-tert-butyl 5-(cyanomethyl)-5-(3-((3-methyl-4-(thiazolidine-3-carbonyl)phenyl)amino)-4-oxo-4,5-dihydro-1H-pyrazolo[4,3-c]pyridin-1-yl)tetrahydro-2H-pyran-2-carboxylate] | 0.18 nM | 0.39 nM |
| CC(C)NC(C)(C)c1ccc(Nc2nn([C@@]3(CC#N)CCCC[C@H]3F)c3cc[nH]c(=O)c23)cc1 [Example 5-175, [(1R,2R)-2-fluoro-1-{3-[(4-{1-methyl-1-[(1-methylethyl)amino]ethyl}phenyl)amino]-4-oxo-4,5-dihydro-1H-pyrazolo[4,3-c]pyridin-1-yl}cyclohexyl]acetonitrile] | 0.09 nM | 0.06 nM |
| CC(C)S(=O)(=O)c1ccc(Nc2nn([C@]3(CC#N)CCCOC3)c3cc[nH]c(=O)c23)cc1 [Example 5-179, {(3S)-3-[3-({4-[(1-methylethyl)sulfonyl]phenyl}amino)-4-oxo-4,5-dihydro-1H-pyrazolo[4,3-c]pyridin-1-yl]tetrahydro-2H-pyran-3-yl}acetonitrile] | 0.08 nM | 0.26 nM |
| CN(C(C)(C)C)S(=O)(=O)c1ccc(Nc2nn([C@]3(CC#N)CCCOC3)c3cc[nH]c(=O)c23)cc1 [Example 5-182, N-tert-butyl-4-({1-[(3S)-3-(cyanomethyl)tetrahydro-2H-pyran-3-yl]-4-oxo-4,5-dihydro-1H-pyrazolo[4,3-c]pyridin-3-yl}amino)-N-methylbenzenesulfonamide] | 0.25 nM | 0.57 nM |
| CC(C)(C)S(=O)(=O)c1ccc(Nc2nn([C@]3(CC#N)CCCOC3)c3cc[nH]c(=O)c23)cc1 [Example 5-183, [(3S)-3-(3-{[4-(tert-butylsulfonyl)phenyl]amino}-4-oxo-4,5-dihydro-1H-pyrazolo[4,3-c]pyridin-1-yl)tetrahydro-2H-pyran-3-yl]acetonitrile] | 0.17 nM | 0.47 nM |
| CC(C)(C)NS(=O)(=O)c1ccc(Nc2nn([C@]3(CC#N)CCCOC3)c3cc[nH]c(=O)c23)cc1 [Example 5-184, N-tert-butyl-4-({1-[(3S)-3-(cyanomethyl)tetrahydro-2H-pyran-3-yl]-4-oxo-4,5-dihydro-1H-pyrazolo[4,3-c]pyridin-3-yl}amino) benzenesulfonamide] | 0.2 nM | 0.6 nM |
| CC(C)(C)OC(=O)CN1Cc2cc(Nc3nn([C@]4(CC#N)CCCOC4)c4cc[nH]c(=O)c34)ccc2S1(=O)=O [Example 5-185, tert-butyl [5-({1-[(3S)-3-(cyanomethyl)tetrahydro-2H-pyran-3-yl]-4-oxo-4,5-dihydro-1H-pyrazolo[4,3-c]pyridin-3-yl}amino)-1,1-dioxido-1,2-benzisothiazol-2(3H)-yl]acetate] | 0.08 nM | 1.5 nM |
| N#CC[C@@]1(n2nc(Nc3ccc(S(=O)(=O)C4CCCC4)cc3)c3c(=O)[nH]ccc32)CCCOC1 [Example 5-191, [(3S)-3-(3-{[4-(cyclopentylsulfonyl)phenyl]amino}-4-oxo-4,5-dihydro-1H-pyrazolo[4,3-c]pyridin-1-yl)tetrahydro-2H-pyran-3-yl]acetonitrile] | 0.16 nM | 0.52 nM |
| CC(C)C(C)(C)S(=O)(=O)c1ccc(Nc2nn([C@]3(CC#N)CCCOC3)c3cc[nH]c(=O)c23)cc1 [Example 5-192, {(3S)-3-[4-oxo-3-({4-[(1,1,2-trimethylpropyl)sulfonyl]phenyl}amino)-4,5-dihydro-1H-pyrazolo[4,3-c]pyridin-1-yl]tetrahydro-2H-pyran-3-yl}acetonitrile] | 0.17 nM | 0.3 nM |
| N#CC[C@@]1(n2nc(Nc3ccc(S(=O)(=O)C4CCCCC4)cc3)c3c(=O)[nH]ccc32)CCCOC1 [Example 5-193, [(3S)-3-(3-{[4-(cyclohexylsulfonyl)phenyl]amino}-4-oxo-4,5-dihydro-1H-pyrazolo[4,3-c]pyridin-1-yl)tetrahydro-2H-pyran-3-yl]acetonitrile] | 0.42 nM | 0.66 nM |
| CCC(C)(C)S(=O)(=O)c1ccc(Nc2nn([C@]3(CC#N)CCCOC3)c3cc[nH]c(=O)c23)cc1 [Example 5-196, {(3S)-3-[3-({4-[(1,1-dimethylpropyl)sulfonyl]phenyl}amino)-4-oxo-4,5-dihydro-1H-pyrazolo[4,3-c]pyridin-1-yl]tetrahydro-2H-pyran-3-yl}acetonitrile] | 0.15 nM | 0.33 nM |
